From patent US7071180B2, “Certain arylaliphatic and heteroaryl-aliphatic piperazinyl pyrazines and their use in the treatment of serotonin-related diseases” (Biovitrum AB, priority 1999, dated 2006)
Counter-ions that a name gives are not always drawn.

| melting point | SMILES |
| --- | --- |
| 207 to 209 °C | c1cnc2ccc(COc3nccnc3N3CCNCC3)cc2c1 (as salt: fumarate) [Example 213, 3-(1-Piperazinyl)-2-pyrazinyl 6-quinolinylmethyl ether] |
| 123 to 126 °C | c1ccc(OCCOc2nc3ccccc3nc2N2CCNCC2)cc1 (as salt: hydrochloride) [Example 3, 2-(2-Phenoxyethoxy)-3-(1-piperazinyl)quinoxaline] |
| 146 to 146.5 °C | c1ccc(OCCCOc2nccnc2N2CCNCC2)cc1 (as salt: hydrochloride) [Example 90, 3-(Phenoxy)propyl 3-(1-piperazinyl)-2-pyrazinyl ether] |
| 129 to 131 °C | c1ccc(OCCCCOc2nccnc2N2CCNCC2)cc1 (as salt: hydrochloride) [Example 98, 4-(Phenoxy)butyl 3-(1-piperazinyl)-2-pyrazinyl ether] |
| 130 to 136 °C | c1cnc(N2CCNCC2)c(OCC2CCCO2)n1 (stereo not shown) (as salt: hydrochloride) [Example 124, 2-(1-Piperazinyl)-3-(tetrahydro-2-furanylmethoxy)pyrazine] |
| 119 °C (dec.) | CN1CC(COc2nccnc2N2CCNCC2)Oc2ccccc21 (stereo not shown) (as salt: hydrochloride) [Example 131, 2-(4-Methyl-3,4-dihydro-2H-1,4-benzoxazin-2-ylmethoxy)-3-(1-piperazinyl)-pyrazine] |
| 170 to 175 °C | c1ccc2c(c1)CCC(COc1nccnc1N1CCNCC1)O2 (stereo not shown) (as salt: hydrochloride) [Example 133, 2-(3,4-Dihydro-2H-chromen-2-ylmethoxy)-3-(1-piperazinyl)pyrazine] |
| 188 to 190 °C | Cc1nc2cc(OCCOc3nccnc3N3CCNCC3)ccc2s1 (as salt: hydrochloride) [Example 143, 2-Methyl-5-(2-{[3-(1-piperazinyl)-2-pyrazinyl]oxy}ethoxy)-1,3-benzothiazole] |
| 160 °C (dec.) | c1ccc2c(c1)OC[C@@H](COc1nccnc1N1CCNCC1)O2 (as salt: hydrochloride) [Example 148, 2-[(2S)-2,3-Dihydro-1,4-benzodioxin-2-ylmethoxy]-3-(1-piperazinyl)pyrazine] |
| 170 to 175 °C | c1cncc(OCCOc2nccnc2N2CCNCC2)c1 (as salt: hydrochloride) [Example 150, 2-(3-Pyridyloxy)ethyl 3-(1-piperazinyl)-2-pyrazinyl ether] |
| 170 °C (dec.) | c1cc(OCCOc2nccnc2N2CCNCC2)ccn1 (as salt: hydrochloride) [Example 151, 2-(4-Pyridyloxy)ethyl 3-(1-piperazinyl)-2-pyrazinyl ether] |
| 157 °C (dec.) | Cc1ccc(OCCOc2nccnc2N2CCNCC2)cn1 (as salt: hydrochloride) [Example 153, 2-(6-Methyl-3-pyridyloxy)ethyl 3-(1-piperazinyl)-2-pyrazinyl ether] |
| 50 °C (dec.) | Cc1ncccc1OCCOc1nccnc1N1CCNCC1 (as salt: hydrochloride) [Example 154, 2-(2-Methyl-3-pyridyloxy)ethyl 3-(1-piperazinyl)-2-pyrazinyl ether] |
| 75 to 85 °C | c1cnc(N2CCNCC2)c(OCCOc2ccsc2)n1 (as salt: hydrochloride) [Example 157, 2-(3-Thienyloxy)ethyl 3-(1-piperazinyl)-2-pyrazinyl ether] |
| 156 °C (dec.) | Nc1cc(OCCOc2nccnc2N2CCNCC2)c2ccccc2n1 (as salt: hydrochloride) [Example 160, 4-(2-{[3-(1-piperazinyl)-2-pyrazinyl]oxy}ethoxy)-2-quinolinamine] |
| 160 to 167 °C | CN1CCN(c2nccnc2OCC2COc3ccccc3O2)CC1 (stereo not shown) (as salt: hydrochloride) [Example 169, 2,3-Dihydro-1,4-benzodioxin-2-ylmethyl 3-(4-methyl-1-piperazinyl)-2-pyrazinyl ether] |
| 133 to 138 °C | CC1CNCCN1c1nc2ccccc2nc1OCCOc1cccc2c1OCO2 (stereo not shown) (as salt: hydrochloride) [Example 182, 2-[2-(1,3-Benzodioxol-4-yloxy)ethoxy]-3-(2-methyl-1-piperazinyl)quinoxaline] |
| 91 to 120 °C | c1ccc(OCCOc2cccnc2N2CCNCC2)cc1 (as salt: hydrochloride) [Example 185, 1-[3-(2-Phenoxyethoxy)-2-pyridinyl]piperazine] |
| 158 to 160 °C | c1cnc(N2CCNCC2)c(OCCOc2ccc3c(c2)OCCO3)n1 (as salt: hydrochloride) [Example 210, 2-[2-(2,3-Dihydro-1,4-benzodioxin-6-yloxy)ethoxy]-3-(1-piperazinyl)pyrazine] |
| 118 to 120 °C | c1coc(COc2nccnc2N2CCNCC2)c1 (as salt: maleate) [Example 2, 2-(2-Furylmethoxy)-3-(1-piperazinyl)pyrazine] |
| 151 to 152 °C | Cc1ccccc1OCCOc1nccnc1N1CCNCC1 (as salt: maleate) [Example 93, 2-(2-Methylphenoxy)ethyl 3-(1-piperazinyl)-2-pyrazinyl ether] |

| melting point | SMILES |
| --- | --- |
| 171 to 173 °C | Fc1ccccc1OCCOc1nccnc1N1CCNCC1 (as salt: maleate) [Example 95, 2-(2-Fluorophenoxy)ethyl 3-(1-piperazinyl)-2-pyrazinyl ether] |
| 165 to 166 °C | N#Cc1ccccc1OCCOc1nccnc1N1CCNCC1 (as salt: maleate) [Example 96, 2-(2-Cyanophenoxy)ethyl 3-(1-piperazinyl)-2-pyrazinyl ether] |
| 141 to 143 °C | Fc1cccc(OCCOc2nccnc2N2CCNCC2)c1 (as salt: maleate) [Example 101, 2-[2-(3-Fluorophenoxy)ethoxy]-3-(1-piperazinyl)pyrazine] |
| 123.2 to 123.5 °C | OCc1cccc(OCCOc2nccnc2N2CCNCC2)c1 (as salt: maleate) [Example 108, [3-(2-{[3-(1-piperazinyl)-2-pyrazinyl]oxy}ethoxy)phenyl]methanol] |
| 114 to 115 °C | COCc1cccc(OCCOc2nccnc2N2CCNCC2)c1 (as salt: maleate) [Example 109, 2-{2-[3-(Methoxymethyl)phenoxy]ethoxy}-3-(1-piperazinyl)pyrazine] |
| 134 to 137 °C | NC(=O)c1cccc(OCCOc2nccnc2N2CCNCC2)c1 (as salt: maleate) [Example 110, 3-(2-{[3-(1-piperazinyl)-2-pyrazinyl]oxy}ethoxy)benzamide] |
| 132 to 133 °C | c1ccc(Nc2ccc(OCCOc3nccnc3N3CCNCC3)cc2)cc1 (as salt: maleate) [Example 111, N-Phenyl-4-(2-{[3-(1-piperazinyl)-2-pyrazinyl]oxy}ethoxy)aniline] |
| 154 to 155 °C | CC(=O)Nc1cccc(OCCOc2nccnc2N2CCNCC2)c1 (as salt: maleate) [Example 119, 2-[2-(3-Acetamidophenoxy)ethoxy]-3-(1-piperazinyl)pyrazine] |
| 127 to 129 °C | OCCOc1ccc(OCCOc2nccnc2N2CCNCC2)cc1 (as salt: maleate) [Example 120, 2-[4-(2-{[3-(1-piperazinyl)-2-pyrazinyl]oxy}ethoxy)phenoxy]ethanol] |
| 128 to 130 °C | c1cncc(CCCOc2nccnc2N2CCNCC2)c1 (as salt: maleate) [Example 126, 2-(1-piperazinyl)-3-[3-(3-pyridinyl)propoxy]pyrazine] |
| 90 to 91 °C | c1cc(CCCOc2nccnc2N2CCNCC2)ccn1 (as salt: maleate) [Example 127, 2-(1-piperazinyl)-3-[3-(4-pyridinyl)propoxy]pyrazine] |
| 134 to 136 °C | Cc1cccc(CCCOc2nccnc2N2CCNCC2)n1 (as salt: maleate) [Example 128, 2-[3-(6-Methyl-2-pyridinyl)propoxy]-3-(1-piperazinyl)pyrazine] |
| 178 to 180.5 °C | c1cc(OCCOc2nccnc2N2CCNCC2)c2ccncc2c1 (as salt: maleate) [Example 134, 2-(5-Isoquinolinyloxy)ethyl 3-(1-piperazinyl)-2-pyrazinyl ether] |
| 132 to 135 °C | c1cc(OCCOc2nccnc2N2CCNCC2)c2cccnc2c1 (as salt: maleate) [Example 135, 2-(5-Quinolinyloxy)ethyl 3-(1-piperazinyl)-2-pyrazinyl ether] |
| 167 to 169 °C | c1cnc2ccc(OCCOc3nccnc3N3CCNCC3)cc2c1 (as salt: maleate) [Example 136, 2-(6-Quinolinyloxy)ethyl 3-(1-piperazinyl)-2-pyrazinyl ether] |
| 156 to 158 °C | c1cnc2cc(OCCOc3nccnc3N3CCNCC3)ccc2c1 (as salt: maleate) [Example 137, 2-(7-Quinolinyloxy)ethyl 3-(1-piperazinyl)-2-pyrazinyl ether] |
| 148 to 149 °C | COc1ccc(C)cc1OCCOc1nccnc1N1CCNCC1 (as salt: maleate) [Example 144, 2-[2-(2-Methoxy-5-methylphenoxy)ethoxy]-3-(1-piperazinyl)pyrazine] |
| 120 °C (dec.) | Nc1cccc2ccc(OCCOc3nccnc3N3CCNCC3)cc12 (as salt: maleate) [Example 145, 7-(2-{[3-(1-piperazinyl)-2-pyrazinyl]oxy}ethoxy)-1-naphthylamine] |
| 130 to 132 °C | c1ccc(OCCOc2nccnc2N2CCNCC2)nc1 (as salt: maleate) [Example 152, 2-(2-Pyridyloxy)ethyl 3-(1-piperazinyl)-2-pyrazinyl ether] |
| 147 to 149 °C | c1ccc2c(OCCOc3nccnc3N3CCNCC3)csc2c1 (as salt: maleate) [Example 156, 2-[2-(1-Benzothien-3-yloxy)ethoxy]-3-(1-piperazinyl)pyrazine] |

| SMILES | melting point |
| --- | --- |
| C[C@@H]1CNCCN1c1nccnc1OCCOc1cccnc1 (as salt: hydrochloride) [Example 173, (2R)-Methyl-1-{3-[2-(3-pyridinyloxy)ethoxy]-2-pyrazinyl}piperazine] | 180 to 183 °C |
| Cc1nc(OCCOc2ccccc2)c(N2CCNCC2)nc1C (as salt: hydrochloride) [Example 183, 5,6-Dimethyl-2-(2-phenoxyethoxy)-3-(1-piperazinyl)pyrazine] | 138 to 140 °C |
